According to US7501434B2, “6-carboxy-normorphinan derivatives, synthesis and uses thereof” (Wyeth, priority 2006, dated 2009):

Assays:
[1] = Partition coefficient determination (1-octanol/water); format: physicochemical; details: pH: 2.2
Description: The partition coefficient of Compound I-1 was determined by the following method. • 1. 20.131 mg of Compound I-1 was dissolved in 2 mL of water saturated with 1-octanol. • 2. 2 mL of 1-octanol saturated with water was added to the solution from step 1. • 3. The two layers were shaken over night at room temperature. • 4. The two layers were analyzed for the concentration of Compound I-1.

Aqueous solubility = format: physicochemical; details: thermodynamic from solid; pH: 2.2, water
Description: >56 mg/ml (pH: 2.2) by adding certain additive amounts of I-1 to 1 ml of water.

Delta 2 (h) = Delta 2 (h) (Homo sapiens, UniProt P41143); assay: Neurotransmitter assay (radioligand binding), Delta 2 (h); details: radioligand [3H]-Naltrindole
Kappa 1 = Kappa 1 (UniProt P41144); format: binding
Mu (h) = Mu (h) (Homo sapiens, UniProt P35372); format: binding
[2] = biological target: T1, human recombinant Mu opioid receptors (Homo sapiens, UniProt P35372); assay: cell-based
T1 construct: expressed in transfected cells; host or cells: CHO cells

[3] = Administration in GI-physiology altered dogs (plasma pharmacokinetics); format: in vivo; details: male, beagle, dog, po, 50 mg, single 50 mg capsule
Description: A 50 mg capsule formulation of Compound Ia was screened in gastrointestinal (GI) physiology regulated male beagle dogs. Atropine (˜20 μg/kg; IV) and pentagastrin (˜10 μg/kg; IM) were administered 15 minutes prior to formulation administration and another dose of pentagastrin (10 μg/kg; IM) was administered 30 minutes post dose. Atropine slows down canine GI motility and pentagastrin decreases pH resulting in GI conditions almost similar to that of humans. The capsules ([…]) via oral administration following an overnight fast and blood samples were drawn at 0 (predose), 0.5, 1, 2, 3, 4, 6, 8, 12, 24 and 48 hours after dosing; plasma was separated and assayed for Compound Ia content. All dogs were fed 4 hours post dose.
50 mg Compound Ia capsule contained neat 51.5 mg of Compound Ia 97% purity (50 mg of Compound Ia), filled in #AA-DB HGC Swedish orange capsule.
Bioanalytical results were received and a preliminary PK assessment was performed. Individual dog plasma Compound Ia concentration-time profiles were subjected to noncompartmental pharmacokinetic analyses (WinNonlin, Model 200). The following pharmacokinetic parameters were determined for each dog, and descriptive statistics were calculated: AUC, Cmax, and tmax.

μ opioid = μ opioid (Homo sapiens, UniProt P35372); details: from WO2006/127898 and WO2006/127899; cited from earlier work
[4] = white crystalline powder from Mallinckrodt Pharmaceuticals; cited from earlier work

Sequence of μ opioid (P35372 whole entry): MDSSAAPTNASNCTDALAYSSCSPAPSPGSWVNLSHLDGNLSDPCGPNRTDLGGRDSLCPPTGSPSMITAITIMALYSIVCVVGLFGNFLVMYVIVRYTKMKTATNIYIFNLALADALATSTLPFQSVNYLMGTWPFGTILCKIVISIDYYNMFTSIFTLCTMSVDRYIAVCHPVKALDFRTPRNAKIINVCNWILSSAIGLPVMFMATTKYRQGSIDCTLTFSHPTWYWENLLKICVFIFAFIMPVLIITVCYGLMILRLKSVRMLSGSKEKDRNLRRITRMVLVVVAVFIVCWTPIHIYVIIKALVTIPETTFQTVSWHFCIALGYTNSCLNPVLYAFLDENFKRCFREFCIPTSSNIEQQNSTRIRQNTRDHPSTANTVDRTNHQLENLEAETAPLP
Sequence of Mu (h) (P35372 whole entry): as above
T1 sequence (P35372 whole entry): as above
Sequence of Delta 2 (h) (P41143 whole entry): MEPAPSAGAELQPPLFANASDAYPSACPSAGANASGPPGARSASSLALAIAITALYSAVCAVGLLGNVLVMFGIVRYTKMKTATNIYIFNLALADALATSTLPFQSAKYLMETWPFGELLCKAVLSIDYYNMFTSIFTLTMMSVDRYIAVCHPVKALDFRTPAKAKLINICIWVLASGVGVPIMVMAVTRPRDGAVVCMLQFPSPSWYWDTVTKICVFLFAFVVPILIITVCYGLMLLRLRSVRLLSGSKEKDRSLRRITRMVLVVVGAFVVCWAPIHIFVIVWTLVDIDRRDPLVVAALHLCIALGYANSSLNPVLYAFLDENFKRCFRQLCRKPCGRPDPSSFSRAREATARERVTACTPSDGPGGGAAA

With `C[N+]1(CC2CC2)CC[C@]23c4c5ccc(O)c4O[C@H]2[C@](O)(C(=O)O)C[C@@]3(O)[C@H]1C5` (stereo partly drawn) [Compound Ia, (3R,4R,4aS,6aR,11bS)-6-carboxy-3-(cyclopropylmethyl)-4-a,6,8-trihydroxy-3-methyl-1,2,3,4,4a,5,6,6a-octahydro-4,11-methano[1]benzofuro[3′,2′:2,3]cyclopenta[1,2-c]pyridin-3-ium] the logP [1] was -2.15, the solubility (Aqueous solubility) was greater than 56 mg/mL and the “Percent Inhibition (Average; N = 2)” value (Delta 2 (h)) was 44.47%. For the same compound, the “Percent Inhibition (Average; N = 2)” value (Kappa 1) was 82.09%, the “Percent Inhibition (Average; N = 2)” value (Mu (h)) was 81.62% and the IC50 [2] was 170 nM. The AUC(0-inf) ([3]; Dog 1, PO) was 4690 ng·h/mL, the AUC(0-t) ([3]; Dog 1, PO) was 4630 ng·h/mL and the Cmax ([3]; Dog 1, PO) was 825 ng/mL. The Tmax ([3]; Dog 1, PO) was 2 h, the half-life ([3]; Dog 1, PO) was 234 min and the AUC(0-inf) ([3]; Dog 2, PO) was 7740 ng·h/mL. The AUC(0-t) ([3]; Dog 2, PO) was 7720 ng·h/mL, the Cmax ([3]; Dog 2, PO) was 1670 ng/mL and the Tmax ([3]; Dog 2, PO) was 3 h. The half-life ([3]; Dog 2, PO) was 168 min, the AUC(0-inf) ([3]; Dog 3, PO) was 6220 ng·h/mL and the AUC(0-t) ([3]; Dog 3, PO) was 6210 ng·h/mL. It also gave a Cmax ([3]; Dog 3, PO) of 1580 ng/mL, a Tmax ([3]; Dog 3, PO) of 1 h and a half-life ([3]; Dog 3, PO) of 66 min. It also gave an AUC(0-inf) ([3]; Mean, N 3 dogs) of 6220 ng·h/mL, an AUC(0-t) ([3]; Mean, N 3 dogs) of 6190 ng·h/mL and a Cmax ([3]; Mean, N 3 dogs) of 1360 ng/mL. For the same compound, the Tmax ([3]; Mean, N 3 dogs) was 2 h, the half-life ([3]; Mean, N 3 dogs) was 156 min and the AUC(0-inf) ([3]; Median, N 3 dogs) was 6220 ng·h/mL. For the same compound, the AUC(0-t) ([3]; Median, N 3 dogs) was 6210 ng·h/mL, the Cmax ([3]; Median, N 3 dogs) was 1580 ng/mL and the Tmax ([3]; Median, N 3 dogs) was 2 h. It also gave a half-life ([3]; Median, N 3 dogs) of 168 min.
In the case of `C[N+]1(CC2CC2)CC[C@]23c4c5ccc(O)c4O[C@H]2C(=O)CC[C@@]3(O)[C@H]1C5` (stereo partly shown) [S-methylnaltrexone], the “Activity at μ opioid receptor (agonist/antagonist)” value (μ opioid) is listed as “peripheral μ opioid agonist”.
For `C[N@@+]1(CC2CC2)CC[C@]23c4c5ccc(O)c4O[C@H]2C(=O)CC[C@@]3(O)C1C5` [R-methylnaltrexone], the “Activity at μ opioid receptor (agonist/antagonist)” value (μ opioid) is given as “antagonist activity”.
In the case of `C[N+]1(CC2CC2)CC[C@]23c4c5ccc(O)c4O[C@H]2C(=O)CC[C@@]3(O)[C@H]1C5` (stereo partly shown) [methylnaltrexone], the Solubility in water [4] is given as “freely soluble in water”.
